Assays:
the trypanosome = conditions: cited from earlier work
[1] = tested on: binding of mAb T54E10 to the n-butanol species; assay: ELISA inhibition-binding study, mAb T54E10 on n-butanol fraction GPI species; design: species or system mouse
Description: The GPI species of the n-butanol fraction were coated on microtiter wells at a coat concentration which corresponds to 10^6 tachyzoites per well. […] Ethanolamine (10 mM) itself was able to inhibit the binding of mAb T54E10 by 50%. All other compounds tested were not able to inhibit the binding of the monoclonal antibody. However, the binding of human anti-Toxoplasma antibodies was not affected by any of the compounds tested.
FIG. 6: Inhibition ELISA: Inhibition ELISA using glycolipids contained in the butanol phase as antigen and mAb T54E10

CCCOCCCCCCCCCC(=O)O [10-(propoxy) decanoic acid]
Toxicity to the trypanosome (the trypanosome): selective toxicity

NCCO [Ethanolamine]
Inhibition of the binding of mAb T54E10 ([1]; 10 mM): 50%

NCCOP(=O)(O)O [ethanolamine-phosphate]
Inhibition of binding of mAb T54E10 to n-butanol species ([1]; coat corresponding to 10^6 tachyzoites per well, FIG. 6): inhibited

Source: US20020058288A1, “TOXOPLASMA GONDII GLYCOCONJUGATES” (priority 1995, published 2002)
